In patent US20080275058A1, “N-Substituted-1H-Quinoline-2,4-Diones, Preparation Method Thereof, And Pharmaceutical Composition Containing The Same” (KOREA RESEARCH INSTITUTE OF CHEMICAL TECHNOLOGY, priority 2005, published 2008):
Like-named read-outs stand apart in the source and are kept apart here.

Assays:
[1] = molecular target: T1, 5-HT6 receptors (Homo sapiens, UniProt P50406); details: background literature, cited from earlier work; for affinity at 5-HT6 receptors, in words: antipsychotics
T1 sequence (P50406 whole entry): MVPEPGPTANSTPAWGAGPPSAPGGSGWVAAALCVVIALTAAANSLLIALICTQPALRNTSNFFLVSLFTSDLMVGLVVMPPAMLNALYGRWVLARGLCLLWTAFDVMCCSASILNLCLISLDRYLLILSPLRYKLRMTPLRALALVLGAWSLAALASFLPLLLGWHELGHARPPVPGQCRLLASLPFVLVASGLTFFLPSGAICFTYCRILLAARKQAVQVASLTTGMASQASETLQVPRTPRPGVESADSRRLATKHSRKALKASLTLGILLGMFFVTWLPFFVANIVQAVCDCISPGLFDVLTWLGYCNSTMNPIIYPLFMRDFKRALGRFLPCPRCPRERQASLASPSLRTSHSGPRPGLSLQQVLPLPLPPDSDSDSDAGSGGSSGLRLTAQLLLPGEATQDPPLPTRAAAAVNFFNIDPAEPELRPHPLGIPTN

[2] = test system: rat; details: cited from earlier work; for anticonvulsant activity: background literature
[3] = cited from earlier work
[4] = test system: rats; details: water maze; cited from earlier work
[5] = test system: rats; details: cited from earlier work
[6] = test system: rats; details: cited from earlier work; remark: listed apart in the source
[7] = molecular target: T1, 5-HT6 receptors; details: human 5-HT6 receptors, background literature; cited from earlier work
[8] = molecular target: T2, Human serotonin 5-HT6 receptor (Homo sapiens, UniProt P50406); experiment: [3H]LSD binding assay on cloned 5-HT6 receptor membranes
T2 construct: made in house; host or cells: insect Sf21 cells (baculovirus vector BacPAK8)
T2 sequence (P50406 whole entry): as above

[9] = molecular target: T3, 5-HT7 (Homo sapiens, UniProt P34969); experiment: Radioligand binding, 5-HT7 ([3H]LSD); details: Table 4; [3H]LSD 3 nM; read-out: Binding affinity, IC50 (nM) 5-HT7
T3 construct: purchased Euroscreen/BioSignal Packard Inc
T3 sequence (P34969 whole entry): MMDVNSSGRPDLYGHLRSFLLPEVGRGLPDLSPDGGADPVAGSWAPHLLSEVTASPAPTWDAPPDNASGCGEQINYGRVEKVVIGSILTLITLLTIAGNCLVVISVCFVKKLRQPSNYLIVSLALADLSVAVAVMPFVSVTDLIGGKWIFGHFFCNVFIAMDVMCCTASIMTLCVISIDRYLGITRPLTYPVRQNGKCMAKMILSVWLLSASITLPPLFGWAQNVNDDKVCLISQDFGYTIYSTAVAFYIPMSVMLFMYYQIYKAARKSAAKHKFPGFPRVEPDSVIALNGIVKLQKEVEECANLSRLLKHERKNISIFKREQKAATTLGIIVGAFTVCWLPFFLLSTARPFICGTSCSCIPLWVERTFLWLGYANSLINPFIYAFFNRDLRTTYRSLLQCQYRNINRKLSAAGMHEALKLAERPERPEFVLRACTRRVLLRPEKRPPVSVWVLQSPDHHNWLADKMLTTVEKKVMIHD

[10] = molecular target: T4, 5-HT2c (Homo sapiens, UniProt P28335); experiment: Radioligand binding, 5-HT2c ([3H]Mesulergine); details: Table 4; [3H]Mesulergine 1 nM; read-out: Binding affinity, IC50 (nM) 5-HT2c
T4 construct: purchased Euroscreen/BioSignal Packard Inc
T4 sequence (P28335 33-458): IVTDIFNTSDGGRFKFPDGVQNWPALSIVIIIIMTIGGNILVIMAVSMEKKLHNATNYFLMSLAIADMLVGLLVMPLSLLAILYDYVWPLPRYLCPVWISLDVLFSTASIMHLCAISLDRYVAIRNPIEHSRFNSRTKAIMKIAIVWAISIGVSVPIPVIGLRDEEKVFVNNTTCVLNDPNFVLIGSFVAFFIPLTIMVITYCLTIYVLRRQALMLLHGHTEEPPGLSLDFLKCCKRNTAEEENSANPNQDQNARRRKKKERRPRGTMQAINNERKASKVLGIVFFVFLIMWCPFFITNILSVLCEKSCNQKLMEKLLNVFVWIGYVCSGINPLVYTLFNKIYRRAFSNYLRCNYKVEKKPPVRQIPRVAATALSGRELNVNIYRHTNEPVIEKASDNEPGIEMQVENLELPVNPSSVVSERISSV

[11] = molecular target: T5, hD2L (Homo sapiens, UniProt P14416); experiment: Radioligand binding, dopamine D2 ([3H]spiperone); details: Table 4; [3H]spiperone 1 nM; read-out: Binding affinity, IC50 (nM) D2
T5 construct: purchased BioSignal Packard Inc., Montreal, Canada
T5 sequence (P14416 whole entry): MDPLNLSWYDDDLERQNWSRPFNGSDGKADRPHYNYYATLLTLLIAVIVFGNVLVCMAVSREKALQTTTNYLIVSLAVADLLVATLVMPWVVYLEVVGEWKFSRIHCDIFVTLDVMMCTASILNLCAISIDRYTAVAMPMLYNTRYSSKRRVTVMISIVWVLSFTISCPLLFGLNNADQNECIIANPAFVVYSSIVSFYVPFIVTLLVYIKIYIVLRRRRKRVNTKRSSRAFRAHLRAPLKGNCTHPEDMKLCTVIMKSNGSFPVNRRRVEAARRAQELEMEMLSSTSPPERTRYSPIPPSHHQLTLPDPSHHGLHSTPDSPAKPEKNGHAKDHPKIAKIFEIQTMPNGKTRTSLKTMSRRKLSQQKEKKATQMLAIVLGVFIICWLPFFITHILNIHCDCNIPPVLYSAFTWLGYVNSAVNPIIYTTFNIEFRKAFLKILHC
Method in brief: (§1)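 Membrane competition binding with [3H]spiperone (1 nM) for hD2L and hD3, or [3H]YM-09151-2 (0.06 nM) for hD4.2, each in receptor-specific Tris-HCl pH 7.4 buffer containing Mg2+/EDTA (D3 and D4 also with K+, Ca2+; D3 with 120 mM NaCl). Compounds were tested at 7-8 concentrations in duplicate, and IC50 was derived by nonlinear regression across three assays.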

[12] = molecular target: T6, hD3 (Homo sapiens, UniProt P35462); experiment: Radioligand binding, dopamine D3 ([3H]spiperone); details: Table 4; [3H]spiperone 1 nM; read-out: Binding affinity, IC50 (nM) D3
T6 construct: purchased BioSignal Packard Inc., Montreal, Canada
T6 sequence (P35462 whole entry): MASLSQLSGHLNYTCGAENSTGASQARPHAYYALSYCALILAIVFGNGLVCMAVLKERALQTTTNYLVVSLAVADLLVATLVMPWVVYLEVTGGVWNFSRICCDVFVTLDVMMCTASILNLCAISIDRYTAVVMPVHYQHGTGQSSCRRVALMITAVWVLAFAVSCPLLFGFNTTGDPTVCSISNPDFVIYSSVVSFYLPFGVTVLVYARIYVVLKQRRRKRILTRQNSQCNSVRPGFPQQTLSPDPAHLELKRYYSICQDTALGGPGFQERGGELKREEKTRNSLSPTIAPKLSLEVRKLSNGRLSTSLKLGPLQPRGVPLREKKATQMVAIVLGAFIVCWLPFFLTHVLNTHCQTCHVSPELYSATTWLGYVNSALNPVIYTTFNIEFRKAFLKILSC
Method in brief: as §1

[13] = molecular target: T7, hD4.2 receptor (Homo sapiens, UniProt P21917, DEL265-296); experiment: Radioligand binding, dopamine D4 ([3H]YM-09151-2); details: Table 4; [3H]YM-09151-2 0.06 nM; read-out: Binding affinity, IC50 (nM) D4
T7 construct: purchased BioSignal Packard Inc., Montreal, Canada
T7 sequence (P21917 with tags, fused parts or gaps DEL265-296): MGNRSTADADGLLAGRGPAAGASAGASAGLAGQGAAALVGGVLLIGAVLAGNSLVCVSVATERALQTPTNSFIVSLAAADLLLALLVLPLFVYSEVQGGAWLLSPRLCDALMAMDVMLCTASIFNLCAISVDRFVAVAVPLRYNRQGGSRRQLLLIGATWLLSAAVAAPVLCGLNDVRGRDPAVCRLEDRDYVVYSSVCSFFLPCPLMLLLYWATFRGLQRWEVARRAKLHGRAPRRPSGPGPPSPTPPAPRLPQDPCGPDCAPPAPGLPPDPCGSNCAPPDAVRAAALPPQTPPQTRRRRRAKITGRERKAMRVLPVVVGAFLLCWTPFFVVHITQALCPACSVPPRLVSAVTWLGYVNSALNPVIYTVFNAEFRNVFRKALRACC
Method in brief: as §1

[14] = molecular target: D1 (Homo sapiens, UniProt P21728); experiment: Radioligand binding, dopamine D1; details: Table 4; read-out: Binding affinity, IC50 (nM) D1
Sequence of D1 (P21728 whole entry): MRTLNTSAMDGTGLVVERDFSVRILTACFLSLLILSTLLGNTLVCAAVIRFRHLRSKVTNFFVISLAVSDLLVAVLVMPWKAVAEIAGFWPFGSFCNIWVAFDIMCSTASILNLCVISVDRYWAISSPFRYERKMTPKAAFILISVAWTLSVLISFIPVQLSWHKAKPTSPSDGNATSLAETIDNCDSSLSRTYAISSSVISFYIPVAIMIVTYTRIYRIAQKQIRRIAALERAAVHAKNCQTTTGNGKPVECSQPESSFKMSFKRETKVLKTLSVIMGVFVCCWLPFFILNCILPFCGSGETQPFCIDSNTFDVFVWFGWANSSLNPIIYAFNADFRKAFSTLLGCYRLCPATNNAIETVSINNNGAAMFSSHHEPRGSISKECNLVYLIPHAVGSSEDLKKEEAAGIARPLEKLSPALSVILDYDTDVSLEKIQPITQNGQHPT

[15] = molecular target: T8, 5-HT1a (Homo sapiens, UniProt P08908); experiment: Radioligand binding, 5-HT1a ([3H]8-OH-DPAT); details: Table 4; [3H]8-OH-DPAT 0.5 nM; read-out: Binding affinity, IC50 (nM) 5-HT1a
T8 construct: purchased Euroscreen/BioSignal Packard Inc
T8 sequence (P08908 1-422): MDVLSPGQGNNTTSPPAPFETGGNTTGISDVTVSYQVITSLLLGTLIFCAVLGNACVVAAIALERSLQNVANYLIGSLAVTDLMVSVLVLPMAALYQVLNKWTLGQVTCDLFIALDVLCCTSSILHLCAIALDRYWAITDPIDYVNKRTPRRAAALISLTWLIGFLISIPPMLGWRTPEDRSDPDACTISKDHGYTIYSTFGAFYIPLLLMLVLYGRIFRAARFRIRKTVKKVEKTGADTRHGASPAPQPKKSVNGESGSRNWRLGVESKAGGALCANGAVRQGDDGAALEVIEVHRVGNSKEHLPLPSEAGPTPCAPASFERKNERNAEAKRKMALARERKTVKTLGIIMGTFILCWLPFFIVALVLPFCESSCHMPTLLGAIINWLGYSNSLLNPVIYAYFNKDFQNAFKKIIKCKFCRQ
Method in brief: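 Receptor-expressing membranes were obtained commercially, and the displacement of radiolabel was then carried out as the supplier's method specifies.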

[16] = test system: mice; experiment: Rotarod deficit in mice; format: in vivo, mouse
Description: (§2) The mouse was placed on a 1 inch diameter knurled plastic rod rotating at 6 rpm (Ugo-Basile, Milano, Italy), and the rotarod deficit (%) was obtained by counting the number of animals fallen from the rotating rod within 1 min [Dunham et al., 1957] at 60, 90 and 120 min after the injection of the compound according to the invention(200, 300 or 400 ? ). […] The compounds of the examples were suspended in 3% Tween 80 solution, and were administered (p.o.) 60 min before the testing.

[17] = Rotarod deficit in mice; format: in vivo, mouse; details: mouse, in vivo, po, unit printed as image, read-out: TD50 (median neurotoxic dose)
Description: as §2

[18] = molecular target: T9, 5-HT2a (Homo sapiens, UniProt P28223); experiment: Radioligand binding, 5-HT2a ([3H]Ketanserin); details: Table 4; [3H]Ketanserin 1 nM; read-out: Binding affinity, IC50 (nM) 5-HT2a
T9 construct: purchased Euroscreen/BioSignal Packard Inc
T9 sequence (P28223 whole entry): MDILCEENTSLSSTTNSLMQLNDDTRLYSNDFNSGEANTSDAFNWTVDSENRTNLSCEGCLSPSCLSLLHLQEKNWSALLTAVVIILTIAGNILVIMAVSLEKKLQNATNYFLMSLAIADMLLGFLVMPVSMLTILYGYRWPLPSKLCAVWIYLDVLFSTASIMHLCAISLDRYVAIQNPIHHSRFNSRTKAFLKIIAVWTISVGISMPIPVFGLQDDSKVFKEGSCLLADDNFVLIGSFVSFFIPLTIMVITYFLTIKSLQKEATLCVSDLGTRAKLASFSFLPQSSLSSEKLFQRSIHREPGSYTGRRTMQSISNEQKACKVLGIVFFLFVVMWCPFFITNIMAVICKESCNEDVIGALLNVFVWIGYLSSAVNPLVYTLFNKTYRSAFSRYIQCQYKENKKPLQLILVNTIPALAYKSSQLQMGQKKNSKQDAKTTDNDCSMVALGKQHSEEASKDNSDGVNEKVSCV

[19] = frontal cortex and dorsal hippocampus; cited from earlier work
[20] = test system: rats; experiment: Methamphetamine-induced disruption of prepulse inhibition (PPI) in rats; format: in vivo, rat
Description: To assay antipsychotic properties of the compounds according to the invention, prepulse inhibition (PPI) of acoustic startle in animals was performed. Startle response was measured using SR-LAB startle chamber (San Diego Instruments, San Diego, USA). The animal enclosure was housed in a ventilated and sound-attenuated startle chamber with 60 dB ambient noise level, and consisted of a Plexiglas cylinder 40 mm in diameter on a platform, connected to a piezoelectric accelerometer which detects and transducer motion within the cylinder. Acoustic noise bursts were presented through a loudspeaker mounted 24 ? above the animal. […] Each startle session began with a 5-min acclimatization period in the chamber to 68 dB background noises. The test session consisting of the following four different trial types was carried for all experiments: a 40 ms broadband 120 dB burst (P; pulse alone trial), P preceded 100 ms earlier by a 20 ms noise burst 10 dB above background (pP; prepulse+pulse trial), a 40 ms broadband 78 dB burst (prepulse alone trial), and a no stimulus trial (background). Eight trials of each type were presented in a pseudorandom order (total32 trials) with an average interval of 15 sec. separating each trial. An extra 5 pulse-alone trials were presented at the beginning and end of each test session, but were not used in the calculation of PPI values. PPI was defined as the percent reduction in startle amplitude in the presence of prepulse compared to the amplitude in the absence of the prepulse using the following Math Equation 1. […] Differences were considered significant at P<0.05. Statistical analyses were conducted using SigmaStat software (SigmaStat, Jandel Co., San Rafael, Calif.). The data were expressed as means±SEM.

[21] = Table 2, 1.87 nM [3H]LSD, 37 C, 60 min, read-out: IC50 (nM), binding affinity to the 5-HT6 receptor
[22] = Table 4, read-out: Binding affinity, IC50 (nM) 5-HT6

| Compound | melting point | IC50 [8, 21] | IC50 [8, 22] | IC50 [9] | IC50 [10] | IC50 [11] | IC50 [12] | IC50 [13] | IC50 [14] | IC50 [15] | Rotarod deficit (%) ([16]; 200 p.o. (dose unit not given)) | Rotarod deficit (%) ([16]; 300 p.o. (dose unit not given)) | Rotarod deficit (%) ([16]; 400 p.o. (dose unit not given)) | TD50 at 120 min [17] | IC50 [18] | also measured |
| --- | --- | --- | --- | --- | --- | --- | --- | --- | --- | --- | --- | --- | --- | --- | --- | --- |
| CN(C)CCCN1c2ccccc2Sc2ccc(Cl)cc21 [chlorpromazine] |  |  |  |  |  |  |  |  |  |  |  |  |  |  |  | affinity at 5-HT6 receptors, in words [1]: bind with high affinity |
| CN(C)CC/C=C1/c2ccccc2Sc2ccc(Cl)cc21 [chlorprothixene] |  |  |  |  |  |  |  |  |  |  |  |  |  |  |  | affinity at 5-HT6 receptors, in words [1]: bind with high affinity |
| COc1ccc(S(=O)(=O)Nc2cc(Br)cc(F)c2Br)cc1N1CCNCC1 [SB-357134] |  |  |  |  |  |  |  |  |  |  |  |  |  |  |  | seizure threshold ([2]; rat maximal electroseizure threshold, oral administration): potent and dose-dependent increase; clearance and bioavailability, in words ([3]; in vivo): low clearance rate and excellent oral bioavailability; retention of a previously learned task [4]: significant improvement |
| CNc1cc(NS(=O)(=O)c2ccc(N)cc2)nc(NC)n1 [Ro 04-6790] |  |  |  |  |  |  |  |  |  |  |  |  |  |  |  | induction of behavior of yawning, stretching, and chewing [5]: capable of inducing this same effect; anticonvulsant activity [2]: possess anticonvulsant activity; food intake [6]: decreased food intake |
| COc1ccc2c(c1)c(CCN(C)C)cn2S(=O)(=O)c1ccccc1 [MS-245] |  |  |  |  |  |  |  |  |  |  |  |  |  |  |  | pA2, antagonist [7]: 8.88 |
| CNc1cc(NS(=O)(=O)c2ccc(N)cc2)cc(NC)n1 [Ro 63-0563] |  |  |  |  |  |  |  |  |  |  |  |  |  |  |  | Ki [1]: 12 nM |
| CN1CCN(c2cc(Cl)cc3c2C(=O)C(C)(c2ccc(O)cc2)C(=O)N3Cc2ccccc2)CC1 (centres unmarked) [Example 2, 1-Benzyl-7-chloro-3-(4-hydroxy-phenyl)-3-methyl-5-(4-methyl-piperazin-1-yl)-1H-quinoline-2,4-dione] | 258 to 259 °C | 2.5 nM | 2.5 nM | 920 nM | 487 nM | > 10000 nM | 589 nM | > 10000 nM | 4970 nM | > 10000 nM | 0% | 0% | 0% | > 400 mg/kg | 2620 nM |  |
| SB-271046 [reference compound] |  |  |  |  | 3960 nM | > 10000 nM |  | > 10000 nM |  |  |  |  |  |  |  | extracellular glutamate levels [19]: increased extracellular glutamate levels in frontal cortex and dorsal hippocampus by several fold; mean startle amplitude compared with methamphetamine group ([20]; administered 30 min before methamphetamine): no significant differences; disruption of PPI by methamphetamine, effect of pretreatment ([20]; rats, i.p., 30 min before methamphetamine (3, i.p.), P<0.05): reversed significantly; anticonvulsant activity [2]: possess anticonvulsant activity; oral bioavailability ([3]; background literature): > 80%; retention of a previously learned task [4]: significant improvement |
| COc1ccc(C2(C)C(=O)c3c(N4CCNCC4)cc(Cl)cc3N(Cc3ccc4ccccc4c3)C2=O)cc1 (centres unmarked) [Example 39, 7-Chloro-3-(4-methoxy-phenyl)-3-methyl-1-naphthalen-2-ylmethyl-5-piperazin-1-yl-1H-quinoline-2,4-dione] | 169 to 170 °C | 4.7 nM | 4.7 nM | > 1000 nM | > 1000 nM | > 1000 nM | > 1000 nM | > 10000 nM | > 1000 nM | > 10000 nM | 0% | 0% | 0% | > 400 mg/kg | > 1000 nM |  |
| COc1ccc(C2(C)C(=O)c3c(N4CCN(C)CC4)cc(Cl)cc3N(Cc3ccccc3)C2=O)cc1 (centres unmarked) [Example 1, 1-Benzyl-7-chloro-3-(4-methoxy-phenyl)-3-methyl-5-(4-methyl-piperazin-1yl)-1H-quinoline-2,4-dione] | 66 to 67 °C | 1.9 nM | 1.9 nM | 7490 nM | > 10000 nM | > 10000 nM | 2280 nM | 8020 nM | 174 nM | 4410 nM | 0% | 0% | 0% | > 400 mg/kg | 1120 nM | binding affinity at 5-HT6 receptor labeled by [3H]LSD, in words ([8]; comment on Table 2): significant affinities |
